Data taken from patent US8999889B2, “Substituted ketonic isoxazoline compounds and derivatives for combating animal pests” (BASF SE, priority 2010, dated 2015).

What was measured:
Format in all cases: in vivo
[1] = test system: Myzus persicae; assay: Green peach aphid (Myzus persicae), artificial diet under membrane, systemic; conditions: 72 h, Myzus persicae adults, 3 days, read-out: mortality in comparison with untreated controls
Source text: B.8 Green Peach Aphid (Myzus Persicae)
For evaluating control of green peach aphid (Myzus persicae) through systemic means the test unit consisted of 96-well-microtiter plates containing liquid artificial diet under an artificial membrane.
The compounds were formulated using a solution containing 75% v/v water and 25% v/v DMSO. Different concentrations of formulated compounds were pipetted into the aphid diet, using a custom built pipetter, at two replications.
After application, 5-8 adult aphids were placed on the artificial membrane inside the microtiter plate wells. The aphids were then allowed to suck on the treated aphid diet and incubated at about 23±1° C. and about 50±5% relative humidity for 3 days. Aphid mortality and fecundity was then visually assessed.

[2] = test system: Bemisia argentifolii; assay: Silverleaf whitefly (Bemisia argentifolii), sprayed cotton plants; conditions: 72 h, Bemisia argentifolii adults, 3 days after treatment, read-out: mortality in comparison with untreated controls
Source text: B.3 Silverleaf Whitefly (Bemisia argentifolii)
(§1) The active compounds were formulated in cyclohexanone as a 10,000 ppm solution supplied in tubes. The tubes were inserted into an automated electrostatic sprayer equipped with an atomizing nozzle and they served as stock solutions for which lower dilutions were made in 50% acetone:50% water (v/v). A nonionic surfactant (Kinetic®) was included in the solution at a volume of 0.01% (v/v).
Cotton plants at the cotyledon stage (one plant per pot) were sprayed by an automated electrostatic plant sprayer equipped with an atomizing spray nozzle. The plants were dried in the sprayer fume hood and then removed from the sprayer. Each pot was placed into a plastic cup and about 10 to 12 whitefly adults (approximately 3-5 days old) were introduced. The insects were collected using an aspirator and a nontoxic Tygon® tubing connected to a barrier pipette tip. The tip, containing the collected insects, was then gently inserted into the soil containing the treated plant, allowing insects to crawl out of the tip to reach the foliage for feeding. Cups were covered with a reusable screened lid. […] Mortality was assessed 3 days after treatment, compared to untreated control plants.

[3] = test system: Plutella xylostella; assay: Diamond back moth (Plutella xylostella), dipped Chinese cabbage leaves; conditions: mortality recorded 24, 72, and 120 hours after treatment, read-out: mortality in comparison with untreated controls
Procedure: If not otherwise specified the test solutions were prepared as follow:
The active compound was dissolved at the desired concentration in a mixture of 1:1 (vol:vol) distilled water:acteon. The test solution was prepared at the day of use and in general at concentrations of ppm (wt/vol).
B.1 Diamond Back Moth (Plutella xylostella)
Leaves of Chinese cabbage were dipped in test solution and air-dried. Treated leaves were placed in petri dished lined with moist filter paper. Mortality was recorded 24, 72, and 120 hours after treatment.

[4] = test system: Megoura viciae; assay: Vetch aphid (Megoura viciae), broad bean leaf disks in microtiter plates; conditions: foliar, 120 h, Megoura viciae adults, 5 days, read-out: mortality in comparison with untreated controls
Procedure: B.5 Vetch aphid (Megoura viciae)
For evaluating control of vetch aphid (Megoura viciae) through contact or systemic means the test unit consisted of 24-well-microtiter plates containing broad bean leaf disks.
The compounds were formulated using a solution containing 75% v/v water and 25% v/v DMSO. Different concentrations of formulated compounds were sprayed onto the leaf disks at 2.5 μl, using a custom built micro atomizer, at two replications. After application, the leaf disks were air-dried and 5-8 adult aphids placed on the leaf disks inside the microtiter plate wells. The aphids were then allowed to suck on the treated leaf disks and incubated at about 23±1° C. and about 50±5% relative humidity for 5 days. Aphid mortality and fecundity was then visually assessed.

[5] = test system: Heliothis virescens; assay: Tobacco budworm (Heliothis virescens) I, sprayed cotton plants; conditions: 96 h, Heliothis virescens larvae, 4 days after treatment, read-out: mortality in comparison with untreated controls
Procedure: B.6 Tobacco Budworm (Heliothis virescens) I
as §1
Cotton plants were grown 2 plants to a pot and selected for treatment at the cotyledon stage. Test solutions were sprayed onto the foliage by an automated electrostatic plant sprayer equipped with an atomizing spray nozzle. The plants were dried in the sprayer fume hood and then removed from the sprayer. Each pot was placed into perforated plastic bags with a zip closure. About 10 to 11 budworm larvae were placed into the bag and the bags zipped closed. Test plants were maintained in a growth room at about 25° C. and about 20-40% relative humidity for 4 days, avoiding direct exposure to fluorescent light (24 hour photoperiod) to prevent trapping of heat inside the bags. Mortality and reduced feeding were assessed 4 days after treatment, compared to untreated control plants.

[6] = test system: Anthonomus grandis; assay: Boll weevil (Anthonomus grandis), microtiter plate with insect diet and eggs; conditions: 120 h, egg and larval mortality after 5 days, read-out: mortality in comparison with untreated controls
Procedure: B.7 Boll Weevil (Anthonomus grandis)
For evaluating control of boll weevil (Anthonomus grandis) the test unit consisted of 24-well-microtiter plates containing an insect diet and 20-30 A. grandis eggs.
The compounds were formulated using a solution containing 75% v/v water and 25% v/v DMSO. Different concentrations of formulated compounds were sprayed onto the insect diet at 20 μl, using a custom built micro atomizer, at two replications.
After application, microtiter plates were incubated at about 23±1° C. and about 50±5% relative humidity for 5 days. Egg and larval mortality was then visually assessed.

[7] = test system: Spodoptera eridania; assay: Southern armyworm (Spodoptera eridania), sprayed lima bean plants; conditions: 96 h, Spodoptera eridania larvae, 4 days after treatment, read-out: mortality in comparison with untreated controls
Procedure: B.4 Southern Armyworm (Spodoptera eridania)
as §1
Lima bean plants (variety Sieva) were grown 2 plants to a pot and selected for treatment at the 1st true leaf stage. Test solutions were sprayed onto the foliage by an automated electrostatic plant sprayer equipped with an atomizing spray nozzle. The plants were dried in the sprayer fume hood and then removed from the sprayer. Each pot was placed into perforated plastic bags with a zip closure. About 10 to 11 armyworm larvae were placed into the bag and the bags zipped closed. Test plants were maintained in a growth room at about 25° C. and about 20-40% relative humidity for 4 days, avoiding direct exposure to fluorescent light (24 hour photoperiod) to prevent trapping of heat inside the bags. Mortality and reduced feeding were assessed 4 days after treatment, compared to untreated control plants.

[8] = test system: Ceratitis capitata; assay: Mediterranean fruitfly (Ceratitis capitata), microtiter plate with insect diet and eggs; conditions: 120 h, egg and larval mortality after 5 days, read-out: mortality in comparison with untreated controls
Procedure: B.2 Mediterranean Fruitfly (Ceratitis capitata)
For evaluating control of Mediterranean fruitfly (Ceratitis capitata) the test unit consisted of microtiter plates containing an insect diet and 50-80 C. capitata eggs.
The compounds were formulated using a solution containing 75% v/v water and 25% v/v DMSO. Different concentrations of formulated compounds were sprayed onto the insect diet at 5 μl, using a custom built micro atomizer, at two replications. After application, microtiter plates were incubated at about 28±1° C. and about 80±5% relative humidity for 5 days. Egg and larval mortality was then visually assessed.

CC(=O)c1ccc(C2=NOC(c3cc(Cl)cc(Cl)c3)(C(F)(F)F)C2)cc1C (stereo not drawn) [Compound 1-1, 1-{4-[5-(3,5-Dichloro-phenyl)-5-trifluoromethyl-4,5-dihydro-isoxazol-3-yl]-2-methyl-phenyl}-ethanone]
≥ 75%: mortality at 2500 ppm [1] | mortality at 300 ppm [2] | mortality at 300 ppm [3] | mortality at 2500 ppm [4] | mortality at 2500 ppm [5] | mortality at 2500 ppm [6] | mortality at 300 ppm [7] | mortality at 2500 ppm [8]

Cc1cc(C2=NOC(c3cc(Cl)cc(Cl)c3)(C(F)(F)F)C2)ccc1C(=O)CC(C)C (stereo not drawn) [Compound 1-2, 1-{4-[5-(3,5-Dichloro-phenyl)-5-trifluoromethyl-4,5-dihydro-isoxazol-3-yl]-2-methyl-phenyl}-3-methyl-butan-1-one]
≥ 75%: mortality at 2500 ppm [1] | mortality at 300 ppm [2] | mortality at 300 ppm [3] | mortality at 2500 ppm [4] | mortality at 2500 ppm [5] | mortality at 300 ppm [7] | mortality at 2500 ppm [8]
